Assay results from US11883526B2 (priority 2019, dated 2024).
Read-outs that look alike come from different tables or passages of the source.

Test system: subjects with MDD at imminent risk for suicide
Details: 84 mg
[1] = TEAE leading to study discontinuation, double-blind phase, N = 35
[2] = TEAE, double-blind phase, N = 35

CN[C@]1(c2ccccc2Cl)CCCCC1=O [esketamine, (S)-2-(2-chlorophenyl)-2-(methylamino)cyclohexanone]
(14.3%): Investigations: % of subjects [2] | Skin and subcutaneous tissue disorders: % of subjects [2]
5: Withdrawn from double-blind phase: Adverse event, number of subjects (all randomized analysis set, N = 36) | Total no. subjects with TEAE leading to study discontinuation: no. of subjects [1] | Investigations: no. of subjects [2] | Skin and subcutaneous tissue disorders: no. of subjects [2]
(54.3%): Gastrointestinal disorders: % of subjects [2]
19: Gastrointestinal disorders: no. of subjects [2]
12: Dizziness: no. of subjects [2]
6: Anxiety: no. of subjects [2] | Paresthesia: no. of subjects [2] | Sedation: no. of subjects [2]
3: Agitation: no. of subjects [2] | Diarrhea: no. of subjects [2] | Dry mouth: no. of subjects [2] | Feeling abnormal: no. of subjects [2] | Hypoesthesia: no. of subjects [2] | Insomnia: no. of subjects [2] | Nasal discomfort: no. of subjects [2] | Throat irritation: no. of subjects [2]
2.9%: Aggression: % of subjects [1] | Agitation: % of subjects [1] | Cardiac disorders: % of subjects [1] | Dizziness: % of subjects [1] | Dysgeusia: % of subjects [1] | Dyspnea: % of subjects [1] | Gastrointestinal disorders: % of subjects [1] | Nausea: % of subjects [1] | Respiratory, thoracic and mediastinal disorders: % of subjects [1] | Ventricular extrasystoles: % of subjects [1]
34.3%: TEAE incidence: dizziness (double-blind phase)
4: Euphoric mood: no. of subjects [2] | Somnolence: no. of subjects [2]
10: General disorders and administration site conditions: no. of subjects [2]
5.7%: Nervous system disorders: % of subjects [1] | Psychiatric disorders: % of subjects [1]
(2.9%): Flatulence: % of subjects [2] | Infections and infestations: % of subjects [2] | Nasal congestion: % of subjects [2] | Rash: % of subjects [2] | Renal and urinary disorders: % of subjects [2]
1 subjects: subjects with a serious adverse event (follow up phase)
(34.3%): Dizziness: % of subjects [2]
(13.9%): Withdrawn from double-blind phase: Adverse event, percent of subjects (all randomized analysis set)
31.4%: TEAE incidence: dissociation (double-blind phase) | TEAE incidence: dysgeusia (double-blind phase) | TEAE incidence: headache (double-blind phase)
20: Psychiatric disorders: no. of subjects [2]
25: Nervous system disorders: no. of subjects [2]
(57.1%): Psychiatric disorders: % of subjects [2]
48.1%: subjects with at least one adverse event (follow up phase)
(8.6%): Agitation: % of subjects [2] | Diarrhea: % of subjects [2] | Dry mouth: % of subjects [2] | Feeling abnormal: % of subjects [2] | Hypoesthesia: % of subjects [2] | Insomnia: % of subjects [2] | Nasal discomfort: % of subjects [2] | Throat irritation: % of subjects [2]
37.1%: TEAE incidence: nausea (double-blind phase)
(11.4%): Euphoric mood: % of subjects [2] | Somnolence: % of subjects [2] | Vertigo: % of subjects [2]
13: Nausea: no. of subjects [2]
94.3%: subjects with at least one TEAE (double-blind phase)
(71.4%): Nervous system disorders: % of subjects [2]
2: Nervous system disorders: no. of subjects [1] | Psychiatric disorders: no. of subjects [1] | Acne: no. of subjects [2] | Blood pressure increased: no. of subjects [2] | Diplopia: no. of subjects [2] | Dizziness postural: no. of subjects [2] | Fatigue: no. of subjects [2] | Feeling cold: no. of subjects [2] | Hyperacusis: no. of subjects [2] | Hyperhidrosis: no. of subjects [2] | Hypoesthesia oral: no. of subjects [2] | Oropharyngeal pain: no. of subjects [2] | Paresthesia oral: no. of subjects [2] | Pharyngeal hypoesthesia: no. of subjects [2] | Suicidal ideation: no. of subjects [2] | Tinnitus: no. of subjects [2]
9: Ear and labyrinth disorders: no. of subjects [2] | Respiratory, thoracic and mediastinal disorders: no. of subjects [2]
20.0%: TEAE incidence: vomiting (double-blind phase)
5 subjects: subjects who discontinued the double-blind phase due to adverse events
0: Dissociative disorder: no. of subjects [1] | Panic attack: no. of subjects [1] | Abdominal pain: no. of subjects [2] | Blepharospasm: no. of subjects [2] | Constipation: no. of subjects [2] | Epistaxis: no. of subjects [2] | Intranasal paranesthesia: no. of subjects [2] | Panic attack: no. of subjects [2] | Pollakiuria: no. of subjects [2] | Rhinalgia: no. of subjects [2] | Rhinorrhoea: no. of subjects [2] | Toothache: no. of subjects [2] | Upper respiratory tract infection: no. of subjects [2]
(5.7%): Acne: % of subjects [2] | Blood pressure increased: % of subjects [2] | Diplopia: % of subjects [2] | Dizziness postural: % of subjects [2] | Fatigue: % of subjects [2] | Feeling cold: % of subjects [2] | Hyperacusis: % of subjects [2] | Hyperhidrosis: % of subjects [2] | Hypoesthesia oral: % of subjects [2] | Oropharyngeal pain: % of subjects [2] | Paresthesia oral: % of subjects [2] | Pharyngeal hypoesthesia: % of subjects [2] | Suicidal ideation: % of subjects [2] | Tinnitus: % of subjects [2]
33: Total no. subjects with TEAE: no. of subjects [2]
1: Aggression: no. of subjects [1] | Agitation: no. of subjects [1] | Cardiac disorders: no. of subjects [1] | Dizziness: no. of subjects [1] | Dysgeusia: no. of subjects [1] | Dyspnea: no. of subjects [1] | Gastrointestinal disorders: no. of subjects [1] | Nausea: no. of subjects [1] | Respiratory, thoracic and mediastinal disorders: no. of subjects [1] | Ventricular extrasystoles: no. of subjects [1] | Flatulence: no. of subjects [2] | Infections and infestations: no. of subjects [2] | Nasal congestion: no. of subjects [2] | Rash: no. of subjects [2] | Renal and urinary disorders: no. of subjects [2]
(17.1%): Anxiety: % of subjects [2] | Paresthesia: % of subjects [2] | Sedation: % of subjects [2]
Four: subjects with a serious treatment-emergent adverse event (double-blind phase)
(37.1%): Nausea: % of subjects [2]
(25.7%): Ear and labyrinth disorders: % of subjects [2] | Respiratory, thoracic and mediastinal disorders: % of subjects [2]
11: Dissociation: no. of subjects [2] | Dysgeusia: no. of subjects [2] | Headache: no. of subjects [2]
(28.6%): General disorders and administration site conditions: % of subjects [2]
(31.4%): Dissociation: % of subjects [2] | Dysgeusia: % of subjects [2] | Headache: % of subjects [2]
14.3%: Total no. subjects with TEAE leading to study discontinuation: % of subjects [1]
(94.3%): Total no. subjects with TEAE: % of subjects [2]
7: Eye disorders: no. of subjects [2]
(20.0%): Eye disorders: % of subjects [2]
